Experimental data: ChEMBL document CHEMBL1201862, “PubChem BioAssay data set” (2004)
The source made the active and inactive calls.

Legend:
cells = assay type: functional
[1] = target: G2/mitotic-specific cyclin-B1 (Homo sapiens, UniProt P14635); assay: Counterscreen assay for inhibitors of Wee1 degradation: dose response cell-based assay to identify inhibitors of cyclin B degradation. [Related pubchem assays: 1410, 1321 ]; assay type: functional
[2] = NIH-3T3 fibroblast cytotoxicity, dose response, cytotoxicity control, cell-based, fluorescence, Alamar Blue, secondary assay (AID 2327); assay type: functional;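 note: NIH-3T3 mouse fibroblasts cultured with fluconazole at 8 µg/mL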
[3] = target: Delta-type opioid receptor (Homo sapiens, UniProt P41143); assay: HTS Image-Based Screen for Agonists of the DOR Receptor. [Related pubchem assays (depositor defined):AID1777, AID1786, AID2133]; assay type: functional
[4] = inhibitors of intracellular T. cruzi replication, confirmation, NIH3T3 host cells, beta-gal luminescence (AID 2044); assay type: functional, cell-based;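 note: intracellular parasites grown in NIH/3T3 mouse fibroblasts as host cells; luminescent beta-galactosidase reporter signal from transgenic T. cruzi replicating inside host cells; inhibitors lower the luminescence signal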
[5] = target: T1, Sphingosine 1-phosphate receptor 4 (Homo sapiens, UniProt O95977); assay: Fluorescence dose response cell-based high throughput screening assay for antagonists of the Sphingosine 1-Phosphate Receptor 4 (S1P4). [Related pubchem assays: 1524 (Confirmation in triplicates.), 1510 (Primary screen.)]; assay type: functional
T1 sequence (O95977 whole entry): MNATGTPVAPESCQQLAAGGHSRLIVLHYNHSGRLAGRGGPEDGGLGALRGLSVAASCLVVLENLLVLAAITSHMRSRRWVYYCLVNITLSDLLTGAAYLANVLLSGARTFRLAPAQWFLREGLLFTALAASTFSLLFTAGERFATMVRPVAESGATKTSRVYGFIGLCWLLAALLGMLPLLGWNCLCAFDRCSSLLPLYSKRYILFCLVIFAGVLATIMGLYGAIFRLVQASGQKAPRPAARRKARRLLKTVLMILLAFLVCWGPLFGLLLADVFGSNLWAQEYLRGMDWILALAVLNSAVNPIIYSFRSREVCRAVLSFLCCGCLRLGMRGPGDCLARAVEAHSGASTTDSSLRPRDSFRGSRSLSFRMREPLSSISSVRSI

[6] = cytotoxicity toward DRD oncogenic fibroblasts, dose response, cell-based, non-viral oncogenic, luminescence (AID 1934); assay type: functional; settings: Homo sapiens
[7] = cytotoxicity in HEK-293T cells, dose response, cytotoxicity control for TCR NF-kB inhibitor project, luminescence, T-cell screen hits (AID 489026); assay type: functional, cell-based;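 note: cells exposed to compound about 14 hours before the viability readout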
[8] = target: PAS domain-containing serine/threonine-protein kinase (Homo sapiens, UniProt Q96RG2); assay type: functional
[9] = target: Testis-specific serine/threonine-protein kinase 2 (Homo sapiens, UniProt Q96PF2); assay type: functional;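 note: part of the Navigating the Kinome panel, target entry STK22B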
[10] = target: Death-associated protein kinase 3 (Homo sapiens, UniProt O43293); assay type: functional;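 note: measured as one member of a kinome-wide profiling panel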
[11] = target: Serine/threonine-protein kinase Chk2 (Homo sapiens, UniProt O96017); assay type: functional;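 note: CHEK2 entry within a kinome-wide screening panel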
[12] = target: Cyclin-dependent kinase 2 (Homo sapiens, UniProt P24941); assay type: functional;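 note: CDK2 measured as one member of a broad kinome profiling panel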
Aurora kinase A = Aurora kinase A (Homo sapiens, UniProt O14965); assay type: functional;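 note: value from the Navigating the Kinome kinase panel profiling, panel entry STK6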
[13] = target: MAP kinase-activated protein kinase 2 (Homo sapiens, UniProt P49137); assay type: functional;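 note: measured as one member of a kinome-wide kinase panel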
[14] = target: Serine/threonine-protein kinase PAK 1 (Homo sapiens, UniProt Q13153); assay type: functional
[15] = target: Calcium/calmodulin-dependent protein kinase type II subunit delta (Homo sapiens, UniProt Q13557); assay type: functional
[16] = target: Fibroblast growth factor receptor 1 (Homo sapiens, UniProt P11362); assay type: functional
[17] = target: Tyrosine-protein kinase JAK3 (Homo sapiens, UniProt P52333); assay type: functional
[18] = target: Casein kinase I isoform gamma-1 (Homo sapiens, UniProt Q9HCP0); assay type: functional;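 note: measured as the CSNK1G1 member of a kinome profiling panel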
[19] = target: Serine/threonine-protein kinase TAO1 (Homo sapiens, UniProt Q7L7X3); assay type: functional
[20] = target: Proto-oncogene tyrosine-protein kinase ROS (Homo sapiens, UniProt P08922); assay type: functional;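 note: ROS1 tested as one member of a kinome-wide kinase panel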
[21] = target: Glycogen synthase kinase-3 alpha (Homo sapiens, UniProt P49840); assay type: functional;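 note: GSK3A result taken from a broad kinome-wide kinase panel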
[22] = target: Tyrosine-protein kinase ABL1 (Homo sapiens, UniProt P00519); assay type: functional
Ephrin type-A receptor 2 = Ephrin type-A receptor 2 (Homo sapiens, UniProt P29317); assay type: functional;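 note: EPHA2 tested as one member of a kinome-wide kinase panel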
[23] = target: Insulin-like growth factor 1 receptor (Homo sapiens, UniProt P08069); assay: Navigating the Kinome. Panel member name: IGF1R; assay type: functional
[24] = target: Mitogen-activated protein kinase 1 (Homo sapiens, UniProt P28482); assay type: functional
Misshapen-like kinase 1 = Misshapen-like kinase 1 (Homo sapiens, UniProt Q8N4C8); assay type: functional;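 note: kinome panel screen with MINK as the panel member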
[25] = target: Protein kinase C iota type (Homo sapiens, UniProt P41743); assay type: functional;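 note: measured within a kinome-wide kinase panel, PRKCI as panel member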
[26] = target: cAMP-dependent protein kinase catalytic subunit PRKX (Homo sapiens, UniProt P51817); assay type: functional
Focal adhesion kinase 1 = Focal adhesion kinase 1 (Homo sapiens, UniProt Q05397); assay type: functional;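 note: measured as one member of a kinome panel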
[27] = target: Interleukin-1 receptor-associated kinase 4 (Homo sapiens, UniProt Q9NWZ3); assay type: functional
[28] = target: RAC-alpha serine/threonine-protein kinase (Homo sapiens, UniProt P31749); assay type: functional;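 note: AKT1 affinity measured as one member of a kinome-wide kinase profiling panel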
[29] = target: Rho-associated protein kinase 1 (Homo sapiens, UniProt Q13464); assay type: functional;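 note: measured within a broad kinome-wide panel profiling many kinases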
[30] = target: Tyrosine-protein kinase Fyn (Homo sapiens, UniProt P06241); assay type: functional
[31] = target: Homeodomain-interacting protein kinase 4 (Homo sapiens, UniProt Q8NE63); assay type: functional
[32] = target: BDNF/NT-3 growth factors receptor (Homo sapiens, UniProt Q16620); assay type: functional;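 note: NTRK2 measured as one member of a broad kinome-wide kinase profiling panel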
[33] = target: Serine/threonine-protein kinase 3 (Homo sapiens, UniProt Q13188); assay type: functional;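 note: measured as one member of a kinome-wide kinase panel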
Estrogen receptor beta = Estrogen receptor beta (Homo sapiens, UniProt Q92731); assay: ERβ–SRC-3 coactivator interaction inhibitors, confirmation, orthogonal assay, biochemical, ELISA, streptavidin-HRP readout (AID 1060)
Beta-arrestin-1 = Beta-arrestin-1 (Homo sapiens, UniProt P49407); assay: inhibitors of arrestin peptide binding to AP2, dose response, biochemical, cherry pick 1, beta2-adaptin appendage, flow cytometry (AID 588783); assay type: functional

Rho-associated protein kinase 1, sequence (Q13464 whole entry): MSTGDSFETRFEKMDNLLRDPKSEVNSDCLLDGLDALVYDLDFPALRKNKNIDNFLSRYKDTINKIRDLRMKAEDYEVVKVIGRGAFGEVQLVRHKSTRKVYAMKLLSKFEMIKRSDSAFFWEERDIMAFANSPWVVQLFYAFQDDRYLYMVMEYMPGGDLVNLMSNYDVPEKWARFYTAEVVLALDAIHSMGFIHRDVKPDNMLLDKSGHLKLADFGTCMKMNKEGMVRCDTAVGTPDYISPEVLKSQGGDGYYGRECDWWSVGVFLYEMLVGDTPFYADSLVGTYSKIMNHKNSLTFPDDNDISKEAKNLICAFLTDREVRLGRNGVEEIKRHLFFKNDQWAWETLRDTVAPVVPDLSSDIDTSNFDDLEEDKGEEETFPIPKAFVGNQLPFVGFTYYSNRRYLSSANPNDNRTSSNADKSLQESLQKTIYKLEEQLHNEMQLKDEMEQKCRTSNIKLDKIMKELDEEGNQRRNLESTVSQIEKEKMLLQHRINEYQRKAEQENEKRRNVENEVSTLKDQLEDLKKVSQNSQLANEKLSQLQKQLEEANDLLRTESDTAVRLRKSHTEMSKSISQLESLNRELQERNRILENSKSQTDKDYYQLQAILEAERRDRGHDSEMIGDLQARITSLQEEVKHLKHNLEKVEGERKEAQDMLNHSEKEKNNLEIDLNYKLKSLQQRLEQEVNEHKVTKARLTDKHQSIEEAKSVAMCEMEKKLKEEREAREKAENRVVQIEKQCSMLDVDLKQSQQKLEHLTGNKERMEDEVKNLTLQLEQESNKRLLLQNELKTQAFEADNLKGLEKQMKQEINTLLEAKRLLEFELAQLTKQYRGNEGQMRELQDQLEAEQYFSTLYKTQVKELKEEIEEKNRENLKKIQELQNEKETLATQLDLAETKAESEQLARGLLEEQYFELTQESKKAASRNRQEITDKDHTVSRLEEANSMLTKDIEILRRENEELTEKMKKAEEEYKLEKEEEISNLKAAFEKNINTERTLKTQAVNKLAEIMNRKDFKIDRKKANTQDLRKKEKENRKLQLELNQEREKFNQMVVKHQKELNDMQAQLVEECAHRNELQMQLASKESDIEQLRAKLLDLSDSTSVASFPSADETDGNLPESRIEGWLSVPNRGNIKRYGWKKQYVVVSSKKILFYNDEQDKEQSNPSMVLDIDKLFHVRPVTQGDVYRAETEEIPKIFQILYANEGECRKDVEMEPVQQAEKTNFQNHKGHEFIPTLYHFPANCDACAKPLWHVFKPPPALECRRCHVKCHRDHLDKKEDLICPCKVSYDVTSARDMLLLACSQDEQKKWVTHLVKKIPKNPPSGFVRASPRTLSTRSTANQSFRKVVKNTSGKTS
Protein kinase C iota type, sequence (P41743 whole entry): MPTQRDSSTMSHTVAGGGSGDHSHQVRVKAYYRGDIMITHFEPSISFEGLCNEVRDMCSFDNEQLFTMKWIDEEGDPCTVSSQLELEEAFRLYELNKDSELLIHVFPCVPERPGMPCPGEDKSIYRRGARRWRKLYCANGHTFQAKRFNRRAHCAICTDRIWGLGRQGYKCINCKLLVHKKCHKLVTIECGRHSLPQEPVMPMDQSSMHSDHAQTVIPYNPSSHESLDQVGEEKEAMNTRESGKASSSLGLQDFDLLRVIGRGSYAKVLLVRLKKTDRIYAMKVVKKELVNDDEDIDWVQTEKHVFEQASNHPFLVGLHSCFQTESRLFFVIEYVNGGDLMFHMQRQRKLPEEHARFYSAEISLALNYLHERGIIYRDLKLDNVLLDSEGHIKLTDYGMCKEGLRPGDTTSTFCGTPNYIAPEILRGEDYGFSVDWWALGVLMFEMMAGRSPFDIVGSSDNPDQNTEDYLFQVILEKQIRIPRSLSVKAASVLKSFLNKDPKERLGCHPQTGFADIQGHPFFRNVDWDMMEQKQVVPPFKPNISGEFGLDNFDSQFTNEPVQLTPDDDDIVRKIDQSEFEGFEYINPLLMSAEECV
Proto-oncogene tyrosine-protein kinase ROS, sequence (P08922 whole entry): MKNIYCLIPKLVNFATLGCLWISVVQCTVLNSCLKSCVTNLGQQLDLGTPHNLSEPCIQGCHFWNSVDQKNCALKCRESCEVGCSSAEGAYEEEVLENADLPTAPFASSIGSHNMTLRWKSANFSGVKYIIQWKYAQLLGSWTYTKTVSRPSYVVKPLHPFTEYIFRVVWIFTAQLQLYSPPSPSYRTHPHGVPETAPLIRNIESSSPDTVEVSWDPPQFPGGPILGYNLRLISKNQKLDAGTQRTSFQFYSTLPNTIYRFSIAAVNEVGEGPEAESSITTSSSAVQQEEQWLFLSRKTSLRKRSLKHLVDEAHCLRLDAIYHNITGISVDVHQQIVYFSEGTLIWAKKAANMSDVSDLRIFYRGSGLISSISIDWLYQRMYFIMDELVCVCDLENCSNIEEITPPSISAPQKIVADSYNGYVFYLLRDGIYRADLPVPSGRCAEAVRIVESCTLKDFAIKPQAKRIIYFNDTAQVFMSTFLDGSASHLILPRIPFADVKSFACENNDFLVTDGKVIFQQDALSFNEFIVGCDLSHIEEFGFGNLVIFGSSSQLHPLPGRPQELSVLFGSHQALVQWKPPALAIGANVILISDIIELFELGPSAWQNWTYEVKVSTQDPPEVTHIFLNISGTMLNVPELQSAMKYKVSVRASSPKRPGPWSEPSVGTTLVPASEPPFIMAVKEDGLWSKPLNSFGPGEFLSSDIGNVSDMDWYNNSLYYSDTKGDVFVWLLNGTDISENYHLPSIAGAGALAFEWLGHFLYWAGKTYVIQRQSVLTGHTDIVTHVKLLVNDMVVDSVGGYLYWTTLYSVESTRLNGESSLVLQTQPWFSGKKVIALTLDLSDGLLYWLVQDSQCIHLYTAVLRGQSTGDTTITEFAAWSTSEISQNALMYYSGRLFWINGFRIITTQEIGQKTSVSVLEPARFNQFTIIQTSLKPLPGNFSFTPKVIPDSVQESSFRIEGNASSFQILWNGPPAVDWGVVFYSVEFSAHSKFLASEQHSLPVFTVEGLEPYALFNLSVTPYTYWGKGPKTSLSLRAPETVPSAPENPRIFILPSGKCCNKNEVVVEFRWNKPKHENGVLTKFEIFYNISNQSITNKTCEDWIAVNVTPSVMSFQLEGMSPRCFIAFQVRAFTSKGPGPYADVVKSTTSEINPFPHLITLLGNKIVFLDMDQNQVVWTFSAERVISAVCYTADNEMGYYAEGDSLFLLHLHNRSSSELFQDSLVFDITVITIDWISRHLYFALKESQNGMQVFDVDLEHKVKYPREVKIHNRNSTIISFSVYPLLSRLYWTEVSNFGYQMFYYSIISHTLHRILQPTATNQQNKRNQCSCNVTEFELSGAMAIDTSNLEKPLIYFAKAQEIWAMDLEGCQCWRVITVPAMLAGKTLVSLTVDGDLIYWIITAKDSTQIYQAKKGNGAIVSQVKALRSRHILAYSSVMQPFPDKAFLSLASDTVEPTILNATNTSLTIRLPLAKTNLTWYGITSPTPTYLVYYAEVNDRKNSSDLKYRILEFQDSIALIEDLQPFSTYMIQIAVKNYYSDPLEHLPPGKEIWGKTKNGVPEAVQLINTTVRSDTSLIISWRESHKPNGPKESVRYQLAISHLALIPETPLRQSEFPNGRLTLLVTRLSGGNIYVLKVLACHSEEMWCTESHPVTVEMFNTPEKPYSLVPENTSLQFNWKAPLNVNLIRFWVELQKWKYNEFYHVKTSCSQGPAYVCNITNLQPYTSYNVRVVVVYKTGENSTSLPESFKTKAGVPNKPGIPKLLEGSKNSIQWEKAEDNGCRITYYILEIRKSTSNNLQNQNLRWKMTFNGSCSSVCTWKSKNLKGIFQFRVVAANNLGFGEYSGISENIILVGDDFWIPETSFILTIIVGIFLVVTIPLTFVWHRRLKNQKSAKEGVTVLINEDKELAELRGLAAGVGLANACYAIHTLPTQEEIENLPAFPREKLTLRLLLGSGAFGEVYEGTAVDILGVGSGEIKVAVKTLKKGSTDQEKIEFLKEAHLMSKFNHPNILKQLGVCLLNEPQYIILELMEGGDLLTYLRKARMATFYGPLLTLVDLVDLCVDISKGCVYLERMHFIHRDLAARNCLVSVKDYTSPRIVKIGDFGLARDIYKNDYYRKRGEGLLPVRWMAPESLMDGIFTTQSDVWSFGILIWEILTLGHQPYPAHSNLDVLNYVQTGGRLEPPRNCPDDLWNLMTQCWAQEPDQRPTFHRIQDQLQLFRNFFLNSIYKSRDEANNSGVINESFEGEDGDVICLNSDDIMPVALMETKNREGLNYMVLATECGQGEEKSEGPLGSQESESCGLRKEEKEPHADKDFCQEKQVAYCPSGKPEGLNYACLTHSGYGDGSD
Homeodomain-interacting protein kinase 4, sequence (Q8NE63 whole entry): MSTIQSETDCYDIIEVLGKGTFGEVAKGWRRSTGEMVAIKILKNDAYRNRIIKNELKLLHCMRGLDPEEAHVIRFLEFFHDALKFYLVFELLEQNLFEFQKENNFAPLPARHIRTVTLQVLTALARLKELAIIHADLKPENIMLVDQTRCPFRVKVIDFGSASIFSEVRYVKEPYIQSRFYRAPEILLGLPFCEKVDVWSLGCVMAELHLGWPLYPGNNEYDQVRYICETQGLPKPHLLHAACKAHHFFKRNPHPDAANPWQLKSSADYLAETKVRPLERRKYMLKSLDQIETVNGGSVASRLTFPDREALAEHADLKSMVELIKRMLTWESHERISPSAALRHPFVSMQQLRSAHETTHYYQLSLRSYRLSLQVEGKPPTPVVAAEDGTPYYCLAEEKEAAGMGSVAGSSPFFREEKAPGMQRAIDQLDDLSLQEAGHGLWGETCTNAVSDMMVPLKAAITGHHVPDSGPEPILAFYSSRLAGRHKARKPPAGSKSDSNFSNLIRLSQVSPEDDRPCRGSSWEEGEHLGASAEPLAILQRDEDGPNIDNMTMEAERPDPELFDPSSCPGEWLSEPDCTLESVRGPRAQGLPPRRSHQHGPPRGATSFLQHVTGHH

Nc1ccc(Br)c2cccnc12
active: IC50 (cells) > 50 µM

Cc1ccc(Nc2cc(C)nn2-c2nc(C)cc(O)n2)cc1
> 49.7 µM (not active): EC50 [1]
inconclusive: EC50 [2] 1.76 µM
inactive: EC50 [3] > 32 µM | IC50 [7] > 80 µM
active: EC50 [4] < 0.1 µM | IC50 [5] 0.17 µM | EC50 [6] 22.4 µM

O=C1NC(=S)SC1=C1C(=O)Nc2ccc(Br)cc21
inactive: Ki [8] > 1.58 µM | Ki [9] > 1.58 µM | Ki [12] > 7.94 µM | Ki [13] > 7.94 µM | Ki [14] > 10 µM | Ki [16] > 5.01 µM | Ki [17] > 1.58 µM | Ki [18] > 6.31 µM | Ki [20] > 2 µM | Ki [22] > 0.631 µM | Ki (Ephrin type-A receptor 2) > 3.16 µM | Ki [23] > 2 µM | Ki [24] > 7.94 µM | Ki (Misshapen-like kinase 1) > 7.94 µM | Ki [25] > 5.01 µM | Ki [26] > 1.58 µM | Ki (Focal adhesion kinase 1) > 1.58 µM | Ki [28] > 7.94 µM | Ki [30] > 0.794 µM | Ki [32] > 5.01 µM
active: Ki [10] 0.2 µM | Ki [11] 1.26 µM | Ki (Aurora kinase A) 0.501 µM | Ki [15] 1.26 µM | Ki [19] 5.01 µM | Ki [21] 0.316 µM | Ki [27] 7.94 µM | Ki [29] 5.01 µM | Ki [31] 0.631 µM | Ki [33] 2 µM

CN(C)c1ncc(C2=C(Cl)C(=O)C(N3CCCC3)=C(Cl)C2=O)s1
active: IC50 (Beta-arrestin-1) 10.7 µM
20.6 µM (not active): IC50 (Estrogen receptor beta)
